These results are taken from the supplement of paper PMC10307832.

What all share (test): relative viability (nuclei count vs DMSO), 5 days (fraction); higher = more cells survive
Compound in the test “Tipifarnib + Olaparib”: Cn1cncc1[C@@](N)(c1ccc(Cl)cc1)c1ccc2c(c1)c(-c1cccc(Cl)c1)cc(=O)n2C [Tipifarnib] + O=C(c1cc(Cc2n[nH]c(=O)c3ccccc23)ccc1F)N1CCN(C(=O)C2CC2)CC1 [Olaparib] (partner 8 µM)
Put shortly:
(§1)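 Relative viability divides the nuclei count in treated wells by that in vehicle wells. Lung cancer cell lines were seeded in 1536-well plates, dosed by pin tool the next day, and fixed and stained after 5 days in one step with final 0.05% Triton X-100, 1% formaldehyde and 1 ug/ml Hoechst. Dosing was a single drug or a fixed anchor-drug dose plus five library-drug doses (not always all listed) in √10 steps, and values are medians of duplicate plates imaged at 4×.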

Compound in the test “Tipifarnib + Alpelisib”: Cn1cncc1[C@@](N)(c1ccc(Cl)cc1)c1ccc2c(c1)c(-c1cccc(Cl)c1)cc(=O)n2C [Tipifarnib] + Cc1nc(NC(=O)N2CCC[C@H]2C(N)=O)sc1-c1ccnc(C(C)(C)C(F)(F)F)c1 [Alpelisib] (partner 2 µM)
Put shortly:
as §1

Compound in the test “Tipifarnib + Pemetrexed”: Cn1cncc1[C@@](N)(c1ccc(Cl)cc1)c1ccc2c(c1)c(-c1cccc(Cl)c1)cc(=O)n2C [Tipifarnib] + Nc1nc2[nH]cc(CCc3ccc(C(=O)N[C@@H](CCC(=O)O)C(=O)O)cc3)c2c(=O)[nH]1 [Pemetrexed] (partner 0.2 µM)
Put shortly:
as §1

Compound in the test “Tipifarnib + Bortezomib”: Cn1cncc1[C@@](N)(c1ccc(Cl)cc1)c1ccc2c(c1)c(-c1cccc(Cl)c1)cc(=O)n2C [Tipifarnib] + CC(C)C[C@H](NC(=O)[C@H](Cc1ccccc1)NC(=O)c1cnccn1)B(O)O [Bortezomib] (partner 0.002 µM)
Put shortly:
as §1

With NCI-H1395, the relative viability with Tipifarnib + Olaparib (first compound 0.01 µM) turned out to be 0.444; in the test with Tipifarnib + Olaparib (first compound 0.03162 µM), 0.5; with Tipifarnib + Olaparib (first compound 0.1 µM), 0.454; with Tipifarnib + Olaparib (first compound 0.3162 µM) it was 0.421; in the test with Tipifarnib + Olaparib (first compound 1 µM), 0.473; with Tipifarnib + Alpelisib (first compound 0.01 µM) it was 0.92. Further, the relative viability was 1.03 with Tipifarnib + Alpelisib (first compound 0.03162 µM); 0.894 with Tipifarnib + Alpelisib (first compound 0.1 µM); 0.693 in the test with Tipifarnib + Alpelisib (first compound 0.3162 µM); 0.6 with Tipifarnib + Alpelisib (first compound 1 µM); 0.826 with Tipifarnib + Pemetrexed (first compound 0.01 µM); 0.76 in the test with Tipifarnib + Pemetrexed (first compound 0.03162 µM). Also, the relative viability with Tipifarnib + Pemetrexed (first compound 0.1 µM) came to 0.746; in the test with Tipifarnib + Pemetrexed (first compound 0.3162 µM), 0.651; with Tipifarnib + Pemetrexed (first compound 1 µM), 0.508.

NCI-H1563: the relative viability with Tipifarnib + Bortezomib (first compound 0.01 µM) amounted to 0.996; with Tipifarnib + Bortezomib (first compound 0.03162 µM) it was 0.881; with Tipifarnib + Bortezomib (first compound 0.1 µM) it was 0.87; with Tipifarnib + Bortezomib (first compound 0.3162 µM), 0.871; in the test with Tipifarnib + Bortezomib (first compound 1 µM) it was 0.748; in the test with Tipifarnib + Alpelisib (first compound 0.01 µM) it was 0.991. The relative viability with Tipifarnib + Alpelisib (first compound 0.03162 µM) came to 0.867; with Tipifarnib + Alpelisib (first compound 0.1 µM), 0.862; in the test with Tipifarnib + Alpelisib (first compound 0.3162 µM), 0.893; in the test with Tipifarnib + Alpelisib (first compound 1 µM) it was 0.757; with Tipifarnib + Pemetrexed (first compound 0.01 µM), 0.731; with Tipifarnib + Pemetrexed (first compound 0.03162 µM), 0.799. Further, the relative viability with Tipifarnib + Pemetrexed (first compound 0.1 µM) was determined as 0.777; with Tipifarnib + Pemetrexed (first compound 0.3162 µM) it was 0.655; in the test with Tipifarnib + Pemetrexed (first compound 1 µM), 0.665.

Consider NCI-H1648, for which the relative viability is 0.868 with Tipifarnib + Olaparib (first compound 0.01 µM); 0.757 with Tipifarnib + Olaparib (first compound 0.03162 µM); 0.572 with Tipifarnib + Olaparib (first compound 0.1 µM); 0.533 in the test with Tipifarnib + Olaparib (first compound 0.3162 µM); 0.456 with Tipifarnib + Olaparib (first compound 1 µM); 0.6 with Tipifarnib + Pemetrexed (first compound 0.01 µM). In addition, the relative viability with Tipifarnib + Pemetrexed (first compound 0.03162 µM) was determined as 0.746; with Tipifarnib + Pemetrexed (first compound 0.1 µM) it was 0.842; with Tipifarnib + Pemetrexed (first compound 0.3162 µM), 0.636; with Tipifarnib + Pemetrexed (first compound 1 µM), 0.305.

As to NCI-H1650, the relative viability with Tipifarnib + Bortezomib (first compound 0.01 µM) was 0.224; with Tipifarnib + Bortezomib (first compound 0.03162 µM) it was 0.204; in the test with Tipifarnib + Bortezomib (first compound 0.1 µM) it was 0.202; with Tipifarnib + Bortezomib (first compound 0.3162 µM), 0.209; with Tipifarnib + Bortezomib (first compound 1 µM), 0.191; with Tipifarnib + Olaparib (first compound 0.01 µM), 0.747. Besides, the relative viability came out at 0.505 with Tipifarnib + Olaparib (first compound 0.03162 µM); 0.358 with Tipifarnib + Olaparib (first compound 0.1 µM); 0.321 in the test with Tipifarnib + Olaparib (first compound 0.3162 µM); 0.416 with Tipifarnib + Olaparib (first compound 1 µM); 0.427 with Tipifarnib + Pemetrexed (first compound 0.01 µM); 0.379 with Tipifarnib + Pemetrexed (first compound 0.03162 µM). Also, the relative viability with Tipifarnib + Pemetrexed (first compound 0.1 µM) is 0.329; in the test with Tipifarnib + Pemetrexed (first compound 0.3162 µM), 0.271; with Tipifarnib + Pemetrexed (first compound 1 µM), 0.278.

For the cell line NCI-H1703, the relative viability stood at 0.296 with Tipifarnib + Bortezomib (first compound 0.01 µM); 0.262 with Tipifarnib + Bortezomib (first compound 0.03162 µM); 0.304 in the test with Tipifarnib + Bortezomib (first compound 0.1 µM); 0.195 in the test with Tipifarnib + Bortezomib (first compound 0.3162 µM); 0.186 with Tipifarnib + Bortezomib (first compound 1 µM); 0.427 with Tipifarnib + Olaparib (first compound 0.01 µM). The relative viability in the test with Tipifarnib + Olaparib (first compound 0.03162 µM) stood at 0.266; in the test with Tipifarnib + Olaparib (first compound 0.1 µM) it was 0.16; in the test with Tipifarnib + Olaparib (first compound 0.3162 µM), 0.176; with Tipifarnib + Olaparib (first compound 1 µM) it was 0.17; with Tipifarnib + Alpelisib (first compound 0.01 µM), 0.267; with Tipifarnib + Alpelisib (first compound 0.03162 µM), 0.275. The relative viability came to 0.147 with Tipifarnib + Alpelisib (first compound 0.1 µM), 0.272 with Tipifarnib + Alpelisib (first compound 0.3162 µM) and 0.21 with Tipifarnib + Alpelisib (first compound 1 µM).

Take NCI-H1793: the relative viability worked out at 0.875 with Tipifarnib + Olaparib (first compound 0.01 µM); 0.718 with Tipifarnib + Olaparib (first compound 0.03162 µM); 0.809 in the test with Tipifarnib + Olaparib (first compound 0.1 µM); 0.695 with Tipifarnib + Olaparib (first compound 0.3162 µM); 0.608 in the test with Tipifarnib + Olaparib (first compound 1 µM); 0.811 in the test with Tipifarnib + Alpelisib (first compound 0.01 µM). The relative viability worked out at 0.691 with Tipifarnib + Alpelisib (first compound 0.03162 µM); 0.565 in the test with Tipifarnib + Alpelisib (first compound 0.1 µM); 0.453 in the test with Tipifarnib + Alpelisib (first compound 0.3162 µM); 0.396 with Tipifarnib + Alpelisib (first compound 1 µM); 0.89 with Tipifarnib + Pemetrexed (first compound 0.01 µM); 0.748 in the test with Tipifarnib + Pemetrexed (first compound 0.03162 µM). Moreover, the relative viability in the test with Tipifarnib + Pemetrexed (first compound 0.1 µM) was 0.703; in the test with Tipifarnib + Pemetrexed (first compound 0.3162 µM) it was 0.522; with Tipifarnib + Pemetrexed (first compound 1 µM) it was 0.389.

NCI-H1944: the relative viability in the test with Tipifarnib + Olaparib (first compound 0.01 µM) was determined as 0.41; in the test with Tipifarnib + Olaparib (first compound 0.03162 µM), 0.364; in the test with Tipifarnib + Olaparib (first compound 0.1 µM) it was 0.356; with Tipifarnib + Olaparib (first compound 0.3162 µM), 0.376; with Tipifarnib + Olaparib (first compound 1 µM) it was 0.382; with Tipifarnib + Alpelisib (first compound 0.01 µM), 0.805. For the same cell line, the relative viability in the test with Tipifarnib + Alpelisib (first compound 0.03162 µM) is 0.742; with Tipifarnib + Alpelisib (first compound 0.1 µM), 0.648; with Tipifarnib + Alpelisib (first compound 0.3162 µM) it was 0.54; with Tipifarnib + Alpelisib (first compound 1 µM), 0.572; with Tipifarnib + Pemetrexed (first compound 0.01 µM) it was 0.531; in the test with Tipifarnib + Pemetrexed (first compound 0.03162 µM), 0.581. Moreover, the relative viability with Tipifarnib + Pemetrexed (first compound 0.1 µM) was found to be 0.48; with Tipifarnib + Pemetrexed (first compound 0.3162 µM), 0.438; with Tipifarnib + Pemetrexed (first compound 1 µM), 0.409.

NCI-H2170: the relative viability worked out at 0.687 with Tipifarnib + Olaparib (first compound 0.01 µM); 0.582 with Tipifarnib + Olaparib (first compound 0.03162 µM); 0.536 in the test with Tipifarnib + Olaparib (first compound 0.1 µM); 0.47 with Tipifarnib + Olaparib (first compound 0.3162 µM); 0.474 with Tipifarnib + Olaparib (first compound 1 µM); 0.839 with Tipifarnib + Alpelisib (first compound 0.01 µM). The relative viability is 0.818 with Tipifarnib + Alpelisib (first compound 0.03162 µM); 0.74 in the test with Tipifarnib + Alpelisib (first compound 0.1 µM); 0.671 with Tipifarnib + Alpelisib (first compound 0.3162 µM); 0.699 with Tipifarnib + Alpelisib (first compound 1 µM); 0.257 with Tipifarnib + Pemetrexed (first compound 0.01 µM); 0.291 in the test with Tipifarnib + Pemetrexed (first compound 0.03162 µM). The relative viability with Tipifarnib + Pemetrexed (first compound 0.1 µM) worked out at 0.269; in the test with Tipifarnib + Pemetrexed (first compound 0.3162 µM), 0.243; in the test with Tipifarnib + Pemetrexed (first compound 1 µM), 0.242.

Regarding NCI-H2342, the relative viability in the test with Tipifarnib + Olaparib (first compound 0.01 µM) turned out to be 0.536; with Tipifarnib + Olaparib (first compound 0.03162 µM), 0.463; with Tipifarnib + Olaparib (first compound 0.1 µM) it was 0.425; with Tipifarnib + Olaparib (first compound 0.3162 µM), 0.371; in the test with Tipifarnib + Olaparib (first compound 1 µM) it was 0.396; with Tipifarnib + Pemetrexed (first compound 0.01 µM), 0.906. Also, the relative viability with Tipifarnib + Pemetrexed (first compound 0.03162 µM) stood at 0.776; with Tipifarnib + Pemetrexed (first compound 0.1 µM), 0.71; with Tipifarnib + Pemetrexed (first compound 0.3162 µM), 0.64; with Tipifarnib + Pemetrexed (first compound 1 µM), 0.509.

In the case of SK-MES-1, the relative viability with Tipifarnib + Olaparib (first compound 0.01 µM) came to 0.733; with Tipifarnib + Olaparib (first compound 0.03162 µM) it was 0.612; with Tipifarnib + Olaparib (first compound 0.1 µM), 0.783; with Tipifarnib + Olaparib (first compound 0.3162 µM) it was 0.622; in the test with Tipifarnib + Olaparib (first compound 1 µM) it was 0.459; in the test with Tipifarnib + Alpelisib (first compound 0.01 µM), 1.03. For the same cell line, the relative viability with Tipifarnib + Alpelisib (first compound 0.03162 µM) stood at 0.897; with Tipifarnib + Alpelisib (first compound 0.1 µM) it was 0.634; with Tipifarnib + Alpelisib (first compound 0.3162 µM), 0.648; with Tipifarnib + Alpelisib (first compound 1 µM), 0.501; with Tipifarnib + Pemetrexed (first compound 0.01 µM), 0.975; in the test with Tipifarnib + Pemetrexed (first compound 0.03162 µM), 0.919. Moreover, the results for the relative viability with Tipifarnib + Pemetrexed (first compound 0.1 µM), in the test with Tipifarnib + Pemetrexed (first compound 0.3162 µM) and with Tipifarnib + Pemetrexed (first compound 1 µM) were 0.924, 0.773 and 0.648, respectively.
